{
  "source": "patent US20060063766A1",
  "about": "“Use of aryl- and heteroaryl-substituted tetrahydroisoquinolines to block reuptake of norepinephrine, dopamine, and serotonin” (priority 2004, published 2006)",
  "key": {"DAT": {"target": "T1, DAT (Homo sapiens, UniProt Q01959)", "T1 construct": "cDNAs containing the complete coding regions of each transporter were amplified by PCR from human brain libraries; expressed in transfected cells; host or cells: HEK293E", "T1 sequence (Q01959 whole entry)": "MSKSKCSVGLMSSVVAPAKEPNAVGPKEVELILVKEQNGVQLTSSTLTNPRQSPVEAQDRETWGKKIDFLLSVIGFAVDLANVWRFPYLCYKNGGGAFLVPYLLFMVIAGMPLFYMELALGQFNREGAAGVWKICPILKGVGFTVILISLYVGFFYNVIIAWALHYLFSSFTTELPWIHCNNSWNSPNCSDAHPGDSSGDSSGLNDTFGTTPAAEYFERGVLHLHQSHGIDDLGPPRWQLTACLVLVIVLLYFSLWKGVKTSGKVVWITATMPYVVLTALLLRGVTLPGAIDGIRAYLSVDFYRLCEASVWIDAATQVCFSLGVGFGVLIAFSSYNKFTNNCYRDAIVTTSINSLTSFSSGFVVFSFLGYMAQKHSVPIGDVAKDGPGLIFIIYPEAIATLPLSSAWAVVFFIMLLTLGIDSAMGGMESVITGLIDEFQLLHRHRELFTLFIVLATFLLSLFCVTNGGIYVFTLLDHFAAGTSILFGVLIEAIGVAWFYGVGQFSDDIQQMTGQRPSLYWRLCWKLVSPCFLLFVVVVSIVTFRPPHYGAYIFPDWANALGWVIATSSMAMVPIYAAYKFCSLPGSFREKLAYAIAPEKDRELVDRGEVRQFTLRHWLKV", "assay": "biochemical", "assay_type": "binding"}, "SERT": {"target": "SERT (Homo sapiens, UniProt P31645)", "sequence (P31645 whole entry)": "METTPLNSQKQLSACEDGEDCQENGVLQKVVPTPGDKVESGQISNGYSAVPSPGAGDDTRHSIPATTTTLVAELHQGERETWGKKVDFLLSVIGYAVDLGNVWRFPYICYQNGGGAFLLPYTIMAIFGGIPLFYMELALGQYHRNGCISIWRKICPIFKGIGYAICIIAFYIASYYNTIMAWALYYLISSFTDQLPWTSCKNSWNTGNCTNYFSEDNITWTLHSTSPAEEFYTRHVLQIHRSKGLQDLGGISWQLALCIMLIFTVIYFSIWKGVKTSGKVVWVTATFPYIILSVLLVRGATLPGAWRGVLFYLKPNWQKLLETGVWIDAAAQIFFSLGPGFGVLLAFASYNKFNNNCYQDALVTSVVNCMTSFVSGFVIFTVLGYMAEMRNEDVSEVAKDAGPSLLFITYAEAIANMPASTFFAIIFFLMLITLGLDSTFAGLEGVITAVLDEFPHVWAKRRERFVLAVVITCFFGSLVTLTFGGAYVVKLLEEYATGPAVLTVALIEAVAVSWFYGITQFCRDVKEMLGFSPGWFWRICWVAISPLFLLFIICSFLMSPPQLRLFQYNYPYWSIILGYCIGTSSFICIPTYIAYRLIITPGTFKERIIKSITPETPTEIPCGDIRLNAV", "assay": "biochemical"}, "[1]": {"system": "tetrabenazine-induced exploratory loss and ptosis in mice", "assay": "Tetrabenazine assay", "conditions": "mouse; result in words"}, "[2]": {"conditions": "in a very small number of patients; cited from earlier work"}, "dopamine transporter": {"target": "dopamine transporter (Homo sapiens, UniProt Q01959)", "sequence (Q01959 whole entry)": "as the sequence (Q01959 whole entry) above", "conditions": "cited from earlier work"}},
  "data": [
    {"smiles": "CN1Cc2ccccc2C(c2ccc3sncc3c2)C1.O=C(O)/C=C\\C(=O)O", "note": "(single isomer, unassigned; (+)) [Example 135, (+)-4-benzo[d]isothiazol-5-yl-2-methyl-1,2,3,4-tetrahydroisoquinoline, maleate salt]", "values": [
      {"measurement": "Ki", "setting": "DAT", "result": 79.4, "unit": "nM"},
      {"measurement": "melting point", "result": "145 to 147", "unit": "°C"},
      {"measurement": "Ki", "setting": "SERT", "result": 10.4, "unit": "nM"}
    ]},
    {"smiles": "CN1Cc2c(N)cccc2C(c2ccccc2)C1", "note": "(stereo not shown) [Nomifensine]", "values": [
      {"measurement": "biological activity in the tetrabenazine in vivo assay", "setting": "[1]", "result": "potent biological activity"}
    ]},
    {"smiles": "CN1Cc2c(N)cccc2C(c2ccccc2)C1", "note": "(stereo not shown) [Nomifensine®]", "values": [
      {"measurement": "serious side effect of long term administration", "setting": "[2]", "result": "fatal immune hemolytic anemia"}
    ]},
    {"smiles": "COC(=O)C(c1ccccc1)C1CCCCN1", "note": "(stereo not shown) [Ritalin]", "values": [
      {"measurement": "biological activity in the tetrabenazine in vivo assay", "setting": "[1]", "result": "potent activity"}
    ]},
    {"smiles": "CNCC[C@@H](Oc1ccccc1C)c1ccccc1", "note": "[atomoxetine]", "values": [
      {"measurement": "activity at the dopamine transporter", "setting": "dopamine transporter", "result": "little or no activity"}
    ]}
  ]
}
